Converted amounts (≈) assume the structure as drawn.
Species on record: Oryctolagus cuniculus
Type: functional, Eye
Details: not given

`CCN(C(=O)c1cccc(C(=O)[O-])n1)C1CC(C)S(=O)(=O)c2sc(S(N)(=O)=O)cc21.[Na+]` (stereo unspecified) and `Cl.NS(=O)(=O)c1nnc(NC(=O)CCN2C(=O)c3cccnc3C2=O)s1` are within 1.5-fold of each other in Drug concentration: 39 µM for the first, 42 µM for the second.

Species on record: Oryctolagus cuniculus
Type: functional, Eye
Details: not given
Remark: another data set of the same source

For `CCN(C(=O)c1cccc(C(=O)[O-])n1)C1CC(C)S(=O)(=O)c2sc(S(N)(=O)=O)cc21.[Na+]` (stereo unspecified), the “Delta IOP” value was 6.5 mmHg.

Species on record: Oryctolagus cuniculus
Details: not given
Remark: another data set of the same source

Compared with `NS(=O)(=O)c1nnc(N2C(=O)c3cccnc3C2=O)s1`, `NS(=O)(=O)c1nnc(NC(=O)CCN2C(=O)c3cccnc3C2=O)s1` is higher in Kin: 7600 h⁻¹ for the first, 9700 h⁻¹ for the second.

Compared with `Cn1nc(S(N)(=O)=O)s/c1=N\C(=O)c1cccc(C(=O)O)n1`, `NS(=O)(=O)c1nnc(NC(=O)c2cccc(C(=O)O)n2)s1` is lower in Kin: 8500 h⁻¹ for the first, 6400 h⁻¹ for the second.

Work on `NS(=O)(=O)c1ccc(NC(=O)c2cccc(C(=O)O)n2)c(F)c1` yielded a Kin of 7000 h⁻¹.

Species on record: Oryctolagus cuniculus
Type: functional, Eye
Details: not given
Remark: another data set of the same source

With `CCN(C(=O)c1cccc(C(=O)[O-])n1)C1CC(C)S(=O)(=O)c2sc(S(N)(=O)=O)cc21.[Na+]` (stereo unspecified) the “Delta IOP” value was 0 mmHg.

Species on record: Oryctolagus cuniculus
Type: functional, Eye
Details: not given
Remark: another data set of the same source

For `CCN(C(=O)c1cccc(C(=O)[O-])n1)C1CC(C)S(=O)(=O)c2sc(S(N)(=O)=O)cc21.[Na+]` (stereo unspecified), the “Delta IOP” value was 9.8 mmHg.

Tested on: not given
Details: octanol/water

`NS(=O)(=O)c1nnc(N2C(=O)c3cccnc3C2=O)s1` and `NS(=O)(=O)c1nnc(NC(=O)CCN2C(=O)c3cccnc3C2=O)s1` are within 0.2 log units of each other in logD: 0.315 for the first, 0.449 for the second.

First: Cn1nc(S(N)(=O)=O)s/c1=N\C(=O)c1cccc(C(=O)O)n1
Second: NS(=O)(=O)c1nnc(NC(=O)c2cccc(C(=O)O)n2)s1
The logD of the first is higher: 0.428 for the first, 0.085 for the second.

`NS(=O)(=O)c1ccc(NC(=O)c2cccc(C(=O)O)n2)c(F)c1` showed a logD of 0.117.

Species on record: Oryctolagus cuniculus
Type: functional, Eye
Details: not given
Remark: another data set of the same source

With `CCN(C(=O)c1cccc(C(=O)[O-])n1)C1CC(C)S(=O)(=O)c2sc(S(N)(=O)=O)cc21.[Na+]` (stereo unspecified) the “Delta IOP” value was 11.8 mmHg.

Biological target: T1, Carbonic anhydrase 4 (Bos taurus, UniProt Q95323)
T1 sequence (Q95323 whole entry): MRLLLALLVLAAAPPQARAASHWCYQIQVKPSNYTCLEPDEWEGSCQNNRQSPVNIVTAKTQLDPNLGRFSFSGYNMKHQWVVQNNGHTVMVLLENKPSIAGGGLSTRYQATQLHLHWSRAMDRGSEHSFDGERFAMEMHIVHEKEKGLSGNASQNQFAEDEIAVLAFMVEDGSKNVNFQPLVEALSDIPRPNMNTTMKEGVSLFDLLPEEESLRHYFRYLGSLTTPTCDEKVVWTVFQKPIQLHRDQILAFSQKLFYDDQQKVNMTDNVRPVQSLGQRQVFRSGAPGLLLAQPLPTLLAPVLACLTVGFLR
Details: not given

`NS(=O)(=O)c1ccc(N2C(=O)c3cccnc3C2=O)c(Cl)c1` and `NS(=O)(=O)c1ccc(N2C(=O)c3cccnc3C2=O)c(Br)c1` are within 1.5-fold of each other in Ki: 79 nM for the first, 75 nM for the second.

Compared with `NS(=O)(=O)c1ccc(N2C(=O)c3cccnc3C2=O)cc1`, `NS(=O)(=O)c1ccc(N2C(=O)c3cccnc3C2=O)c(F)c1` is 3.7-fold lower in Ki: 170 nM for the first, 46 nM for the second.

`NS(=O)(=O)c1nnc(N2C(=O)c3cccnc3C2=O)s1` and `NS(=O)(=O)c1nnc(NC(=O)c2cccc(C(=O)O)n2)s1` are within 1.5-fold of each other in Ki: 18 nM for the first, 21 nM for the second.

Compared with `Nc1ccc(S(N)(=O)=O)cc1I`, `NS(=O)(=O)c1ccccc1NC(=O)c1cccc(C(=O)O)n1` is 2.4-fold higher in Ki: 125 nM for the first, 300 nM for the second.

`Cn1nc(S(N)(=O)=O)s/c1=N\C(=O)c1cccc(C(=O)O)n1` showed a Ki of 19 nM.

Species on record: Oryctolagus cuniculus
Type: functional, Eye
Details: not given
Remark: another data set of the same source

For `CCN(C(=O)c1cccc(C(=O)[O-])n1)C1CC(C)S(=O)(=O)c2sc(S(N)(=O)=O)cc21.[Na+]` (stereo unspecified), the “Delta IOP” value was 3.6 mmHg.

Species on record: Oryctolagus cuniculus
Type: functional, Eye
Details: not given
Remark: another data set of the same source

For `CCN(C(=O)c1cccc(C(=O)[O-])n1)C1CC(C)S(=O)(=O)c2sc(S(N)(=O)=O)cc21.[Na+]` (stereo unspecified), the “Delta IOP” value was 3.5 mmHg.

Biological target: T2, Carbonic anhydrase 2 (Homo sapiens, UniProt P00918)
Details: not given

`NS(=O)(=O)c1ccc(N2C(=O)c3cccnc3C2=O)c(Cl)c1` and `NS(=O)(=O)c1ccc(N2C(=O)c3cccnc3C2=O)c(Br)c1` are within 1.5-fold of each other in Ki: 44 nM for the first, 31 nM for the second.

`NS(=O)(=O)c1ccc(N2C(=O)c3cccnc3C2=O)c(F)c1` and `NS(=O)(=O)c1ccc(NC(=O)c2cccc(C(=O)O)n2)c(F)c1` are within 1.5-fold of each other in Ki: 10 nM for the first, 8 nM for the second.

`Cn1nc(S(N)(=O)=O)s/c1=N\C(=O)c1cccc(C(=O)O)n1` and `NS(=O)(=O)c1nnc(NC(=O)c2cccc(C(=O)O)n2)s1` are within 1.5-fold of each other in Ki: 7 nM for the first, 6 nM for the second.

Species on record: Oryctolagus cuniculus
Details: not given
Remark: another data set of the same source

First: NS(=O)(=O)c1nnc(N2C(=O)c3cccnc3C2=O)s1
Second: NS(=O)(=O)c1nnc(NC(=O)CCN2C(=O)c3cccnc3C2=O)s1
The Kin of the first is lower: 2500 h⁻¹ for the first, 3800 h⁻¹ for the second.

First: Cn1nc(S(N)(=O)=O)s/c1=N\C(=O)c1cccc(C(=O)O)n1
Second: NS(=O)(=O)c1nnc(NC(=O)c2cccc(C(=O)O)n2)s1
The Kin of the first is higher: 3600 h⁻¹ for the first, 1100 h⁻¹ for the second.

For `NS(=O)(=O)c1ccc(NC(=O)c2cccc(C(=O)O)n2)c(F)c1`, the Kin was 1600 h⁻¹.

Biological target: T3, Carbonic anhydrase 1 (Homo sapiens, UniProt P00915)
T3 sequence (P00915 whole entry): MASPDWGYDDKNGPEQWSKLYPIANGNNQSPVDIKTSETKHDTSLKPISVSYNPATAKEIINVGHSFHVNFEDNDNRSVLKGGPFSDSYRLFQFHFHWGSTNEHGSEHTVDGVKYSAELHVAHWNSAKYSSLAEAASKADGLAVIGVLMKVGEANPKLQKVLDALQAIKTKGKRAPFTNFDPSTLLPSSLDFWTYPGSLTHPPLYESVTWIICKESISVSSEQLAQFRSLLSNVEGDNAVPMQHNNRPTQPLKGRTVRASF
Details: not given

Compared with `NS(=O)(=O)c1ccc(N2C(=O)c3cccnc3C2=O)cc1`, `NS(=O)(=O)c1nnc(N2C(=O)c3cccnc3C2=O)s1` is 400-fold lower in Ki: 15500 nM for the first, 39 nM for the second. The second binds more tightly here.

With `NS(=O)(=O)c1nnc(NC(=O)CCN2C(=O)c3cccnc3C2=O)s1` the Ki was 18 nM.

Biological target: T2, Carbonic anhydrase 2
Details: not given
Remark: another data set of the same source

First: NS(=O)(=O)c1ccc(N2C(=O)c3cccnc3C2=O)cc1
Second: NS(=O)(=O)c1nnc(N2C(=O)c3cccnc3C2=O)s1
The Ki of the first is 16-fold higher: 132 nM for the first, 8 nM for the second. The second binds more tightly here.

Compound `NS(=O)(=O)c1nnc(NC(=O)CCN2C(=O)c3cccnc3C2=O)s1` has a Ki of 3 nM.

Species on record: Oryctolagus cuniculus
Type: functional, Eye
Details: not given
Remark: another data set of the same source

`CCN(C(=O)c1cccc(C(=O)[O-])n1)C1CC(C)S(=O)(=O)c2sc(S(N)(=O)=O)cc21.[Na+]` (stereo unspecified) and `Cl.NS(=O)(=O)c1nnc(NC(=O)CCN2C(=O)c3cccnc3C2=O)s1` are within 1.5-fold of each other in Drug concentration: 10 µM for the first, 12 µM for the second.

Species on record: Oryctolagus cuniculus
Type: functional, Eye
Details: not given
Remark: another data set of the same source

With `CCN(C(=O)c1cccc(C(=O)[O-])n1)C1CC(C)S(=O)(=O)c2sc(S(N)(=O)=O)cc21.[Na+]` (stereo unspecified) the “Delta IOP” value was 0 mmHg.

Species on record: Oryctolagus cuniculus
Type: functional, Eye
Details: not given
Remark: another data set of the same source

For `CCN(C(=O)c1cccc(C(=O)[O-])n1)C1CC(C)S(=O)(=O)c2sc(S(N)(=O)=O)cc21.[Na+]` (stereo unspecified), the “Delta IOP” value was 7.2 mmHg.

Species on record: Oryctolagus cuniculus
Type: functional, Eye
Details: not given
Remark: another data set of the same source

For `CCN(C(=O)c1cccc(C(=O)[O-])n1)C1CC(C)S(=O)(=O)c2sc(S(N)(=O)=O)cc21.[Na+]` (stereo unspecified), the “Delta IOP” value was 10.1 mmHg.

Species on record: Oryctolagus cuniculus
Type: functional, Eye
Details: not given
Remark: another data set of the same source

For `CCN(C(=O)c1cccc(C(=O)[O-])n1)C1CC(C)S(=O)(=O)c2sc(S(N)(=O)=O)cc21.[Na+]` (stereo unspecified), the “Delta IOP” value was 7.7 mmHg.

Species on record: Oryctolagus cuniculus
Type: functional, Eye
Details: not given
Remark: another data set of the same source

In the case of `CCN(C(=O)c1cccc(C(=O)[O-])n1)C1CC(C)S(=O)(=O)c2sc(S(N)(=O)=O)cc21.[Na+]` (stereo unspecified), the “Delta IOP” value is reported as 0 mmHg.

Biological target: T3, Carbonic anhydrase 1
Details: not given
Remark: another data set of the same source

`NS(=O)(=O)c1ccc(N2C(=O)c3cccnc3C2=O)c(Cl)c1` and `NS(=O)(=O)c1ccc(N2C(=O)c3cccnc3C2=O)c(Br)c1` are within 1.5-fold of each other in Ki: 620 nM for the first, 605 nM for the second.

First: Nc1ccc(S(N)(=O)=O)cc1I
Second: NS(=O)(=O)c1ccc(N2C(=O)c3cccnc3C2=O)c(F)c1
The Ki of the first is 11-fold higher: 6000 nM for the first, 540 nM for the second. The second binds more tightly here.

`Cn1nc(S(N)(=O)=O)s/c1=N\C(=O)c1cccc(C(=O)O)n1` and `NS(=O)(=O)c1nnc(NC(=O)c2cccc(C(=O)O)n2)s1` are within 1.5-fold of each other in Ki: 35 nM for the first, 36 nM for the second.

Species on record: Oryctolagus cuniculus
Type: functional, Eye
Details: not given
Remark: another data set of the same source

`CCN(C(=O)c1cccc(C(=O)[O-])n1)C1CC(C)S(=O)(=O)c2sc(S(N)(=O)=O)cc21.[Na+]` (stereo unspecified) and `Cl.NS(=O)(=O)c1nnc(NC(=O)CCN2C(=O)c3cccnc3C2=O)s1` are within 1.5-fold of each other in Drug concentration: 278 µM for the first, 280 µM for the second.

Species on record: Oryctolagus cuniculus
Type: functional, Eye
Details: not given
Remark: another data set of the same source

`CCN(C(=O)c1cccc(C(=O)[O-])n1)C1CC(C)S(=O)(=O)c2sc(S(N)(=O)=O)cc21.[Na+]` (stereo unspecified) and `Cl.NS(=O)(=O)c1nnc(NC(=O)CCN2C(=O)c3cccnc3C2=O)s1` are within 1.5-fold of each other in Drug concentration: 113 µM for the first, 158 µM for the second.

Species on record: Oryctolagus cuniculus
Type: functional, Eye
Details: not given
Remark: another data set of the same source

`CCN(C(=O)c1cccc(C(=O)[O-])n1)C1CC(C)S(=O)(=O)c2sc(S(N)(=O)=O)cc21.[Na+]` (stereo unspecified) and `Cl.NS(=O)(=O)c1nnc(NC(=O)CCN2C(=O)c3cccnc3C2=O)s1` are within 1.5-fold of each other in Drug concentration: 44 µM for the first, 45 µM for the second.

Species on record: Oryctolagus cuniculus
Type: functional, Eye
Details: not given
Remark: another data set of the same source

For `CCN(C(=O)c1cccc(C(=O)[O-])n1)C1CC(C)S(=O)(=O)c2sc(S(N)(=O)=O)cc21.[Na+]` (stereo unspecified), the “Delta IOP” value was 9.9 mmHg.

Species on record: Oryctolagus cuniculus
Type: functional, Eye
Details: not given
Remark: another data set of the same source

`CCN(C(=O)c1cccc(C(=O)[O-])n1)C1CC(C)S(=O)(=O)c2sc(S(N)(=O)=O)cc21.[Na+]` (stereo unspecified) and `Cl.NS(=O)(=O)c1nnc(NC(=O)CCN2C(=O)c3cccnc3C2=O)s1` are within 1.5-fold of each other in Drug concentration: 47 µM for the first, 50 µM for the second.

Tested on: not listed separately
Assay: Compound was tested for solubility in pH buffer, at 25 degree C.
Type: ADME
Details: not given

`NS(=O)(=O)c1nnc(N2C(=O)c3cccnc3C2=O)s1` and `NS(=O)(=O)c1nnc(NC(=O)CCN2C(=O)c3cccnc3C2=O)s1` are within 1.5-fold of each other in solubility: 72 mM (≈ 22.4 mg/mL) for the first, 81 mM (≈ 31 mg/mL) for the second.

`Cn1nc(S(N)(=O)=O)s/c1=N\C(=O)c1cccc(C(=O)O)n1` and `NS(=O)(=O)c1nnc(NC(=O)c2cccc(C(=O)O)n2)s1` are within 1.5-fold of each other in solubility: 79 mM (≈ 27.1 mg/mL) for the first, 83 mM (≈ 27.3 mg/mL) for the second.

In the case of `NS(=O)(=O)c1ccc(NC(=O)c2cccc(C(=O)O)n2)c(F)c1`, the solubility is reported as 66 mM (≈ 22.4 mg/mL).
